Converted amounts (≈) assume the structure as drawn. Structures can show the parent of a compound that is named as a salt.

In data set [1] the test system is Candida albicans (KMM 455). Description: Antimicrobial activity, inhibition of microbial growth (optical density). The class given is cell-based. Particulars: Candida albicans, KMM455; 18 h, OD 620 nm; read-out: Inhibition of Microbial Growth MIC50, C. albicans. The protocol: (§1) The antimicrobial activity of the compounds was determined against Gram-positive bacteria Staphylococcus aureus (ATCC 21027), Gram-negative bacteria Escherichia coli (VKPM B-7935), and yeast-like fungi Candida albicans (KMM 455) (all test strains were obtained from the Collection of Marine Microorganisms KMM PIBOC FEB RAS) in liquid nutrient media. Test cultures of S. aureus, E. coli, and C. albicans were grown in Petri dishes on a solid nutrient medium (Mueller–Hinton broth with the addition of agar—16.0 g/L) at 37 °C for 24 h. The antimicrobial activity of the compounds was determined by the change in optical density and expressed as the percentage of bacterial inhibition at different concentrations of substances added to the well of the microorganism suspension, compared to the control. The compounds were dissolved in dimethyl sulfoxide (DMSO) at a concentration of 10 mM and stored at −20 °C. Before the experiment, the solution of substances in DMSO was diluted with PBS at a concentration of 0.5–100.0 µM and added to the wells so that the concentration of DMSO in the culture medium was less than 1%. Antimicrobial activity was determined in 96-well microplates in a liquid Mueller–Hinton nutrient medium. For S. aureus, E. coli, and C. albicans, a bacterial suspension of 10^6 CFU in 1 mL of the media was used, 90 μL was added to each well of the microplates and then incubated in a thermostatted shaker at 37 °C for 18 h. Inhibition of microorganism growth was assessed by measuring the optical density at 620 nm using a microplate reader (Thermo Fisher Scientific, Waltham, MA, USA) after preliminary shaking of the plates for 10 min. All experiments were performed in triplicate. Gentamicin (S. aureus and E. coli) and nitrofungin (C. albicans) were used as positive controls, and 1% DMSO in PBS was used as a negative control.

The subject of data set [2] is Escherichia coli (VKPM B-7935). The data set is described as above. To be noted: Escherichia coli; 18 h, OD 620 nm; read-out: Inhibition of Microbial Growth MIC50, E. coli. The class given is cell-based. The protocol: as §1
Data set [3] relates to Staphylococcus aureus (ATCC 21027). The data set is described as above. The class given is cell-based. To be noted: Staphylococcus aureus, ATCC21027; 18 h, OD 620 nm; read-out: Inhibition of Microbial Growth MIC50, S. aureus. The procedure:
as §1

Data set [4] is described as follows: MTT cell viability assay, BEAS-2B normal cells. The class given is cell-based. Particulars: human, BEAS-2B normal bronchial epithelial cells, 24 h incubation, read-out: Cytotoxicity EC50, BEAS 2B. The text has this: (§2) Human erythrocytes were purchased from the blood transfusion station Vladivostok. Human breast cancer cell lines MCF-7^HTB−22, and MDA-MB-231^CRM-HTB−26, liver hepatocellular carcinoma Hep G2^HB−8065, prostate adenocarcinoma PC-3^CRL−1435, cervical adenocarcinoma HeLa^CRM-CCL−2, and normal bronchial epithelial cells BEAS-2B ^CRL−3588 were received from ATCC (Manassas, VA, USA).
(§3) DMEM medium (Biolot, Russia) with 1% penicillin/streptomycin and 10% fetal bovine serum (FBS) (Biolot, Russia) was used for cultivation of Hep G2, PC-3, HeLa, and Beas-2b. MEM medium (Biolot, Russia) with 1% penicillin/streptomycin sulfate (Biolot, Russia) and FBS (Biolot, Russia) to a final concentration of 10% for MCF-7 and MDA-MB-231 cells.
(§4) The effect of the studied compounds on the viability of human cancer and normal cells was determined using the MTT (3-[4,5-dimethylthiazol-2-yl]-2,5 diphenyl tetrazolium bromide) assay. Briefly, 6 × 10^3 cells per well were seeded into 96-well plates and incubated for 24 h for adhesion, followed by incubation for 24 h with different concentrations of the substances. After incubation, the medium containing the test substances was replaced with 100 µL of fresh medium. Then, 10 μL of MTT (Sigma-Aldrich, Madison, WI, USA) reagent (5 mg/mL MTT in PBS) was added into the cells and the plates for additional 4 h. Thereafter, 100 µL of SDS-HCl solution (1 g SDS/10 mL dH2O/17 µL 6N HCl) was added to each well and incubated for 18 h. The absorbance of the converted formazan dye was measured using a Multiskan FC microplate photometer (Thermo Scientific, Waltham, MA, USA) at a wavelength of 570 nm. All experiments were performed in triplicate. Cytotoxic activity was expressed as a percentage of the cell viability.
(Tetrazolium dyes change colour on reduction, which living cells bring about.)

Data set [5] deals with HeLa (cervical cancer). Description: MTT cell viability assay, HeLa. The class given is cell-based, human. To be noted: Homo sapiens, HeLa, 24 h, 24 h incubation, read-out: Cytotoxicity EC50, HeLa.
Description: as §2, §3, §4

Data set [6] deals with MDA-MB-231 (triple-negative breast cancer). Description: MTT cell viability assay, MDA-MB-231. The class given is cell-based, human. Particulars: Homo sapiens, MDA-MB-231, 24 h, 24 h incubation, read-out: Cytotoxicity EC50, MDA-MB-231 (TNBC).
Description: as §2, §3, §4

Data set [7] deals with Hep G2 (hepatocellular carcinoma). Description: MTT cell viability assay, Hep G2. The class given is cell-based. To be noted: Homo sapiens, HepG2, 24 h incubation, read-out: Cytotoxicity EC50, Hep G2.
Description: as §2, §3, §4

The MIC50 is the lowest concentration that inhibits either 50% of growth or 50% of the strains tested, depending on the study. For `Nc1nc(-c2ccccc2)c(SSc2sc(N)nc2-c2ccccc2)s1` [Compound 1b, bis(2-amino-4-phenyl-5-thiazolyl)disulfide], the MIC50 in data set [1] came out at 6.2 ± 0.6 µM (≈ 2.57 µg/mL); in data set [2], 13.9 ± 1.3 µM (≈ 5.76 µg/mL); in data set [3], 5.2 ± 0.5 µM (≈ 2.16 µg/mL).

Consider `Nc1nc(-c2ccc(Br)cc2)c(SSc2sc(N)nc2-c2ccc(Br)cc2)s1` [Compound 1c], for which the MIC50 in data set [1] worked out at 3.1 ± 0.4 µM (≈ 1.77 µg/mL); in data set [2] it was 15.7 ± 2.3 µM (≈ 8.99 µg/mL); in data set [3], 3.4 ± 0.4 µM (≈ 1.95 µg/mL).

Turning to `Nc1nc(-c2ccc(Cl)cc2)c(SSc2sc(N)nc2-c2ccc(Cl)cc2)s1` [Compound 1d], the MIC50 in data set [1] stood at 5 ± 0.4 µM (≈ 2.42 µg/mL); in data set [2] it was 30.9 ± 3 µM (≈ 14.9 µg/mL); in data set [3] it was 2.8 ± 0.2 µM (≈ 1.35 µg/mL).

`Cc1ccc(-c2nc(N)sc2SSc2sc(N)nc2-c2ccc(C)cc2)cc1` [Compound 1e]: the figures for the MIC50 in data set [1], in data set [2] and in data set [3] were 19.5 ± 2 µM (≈ 8.63 µg/mL), 33.9 ± 3.9 µM (≈ 15 µg/mL) and 30.7 ± 2.1 µM (≈ 13.6 µg/mL), respectively.

By EC50 is commonly meant the concentration needed to bring the measured effect to its halfway point. Consider `COc1ccc(-c2nc(N)sc2SS[C@@H]2O[C@H](COC(C)=O)[C@@H](OC(C)=O)[C@H](OC(C)=O)[C@H]2OC(C)=O)cc1` [Compound 4a, 5-[(2,3,4,6-Tetra-O-acetyl-β-D-glucopyranosyl)disulfanyl]-2-amino-4-(4-methoxyphenyl) thiazole], for which the concentration giving a half-maximal response (EC50) at 24 h in data set [4] was found to be 19.9 µM. Also, the EC50 in data set [5], in data set [6] and in data set [7] was more than 25 µM in each case. For the same molecule, the MIC50 in data set [1] is 31.5 ± 3.1 µM (≈ 18.9 µg/mL); in data set [2] it was more than 50 µM; in data set [3], 32.5 ± 3.2 µM (≈ 19.5 µg/mL).

As for `CC(=O)OC[C@H]1O[C@@H](SSc2sc(N)nc2-c2ccccc2)[C@H](OC(C)=O)[C@@H](OC(C)=O)[C@@H]1OC(C)=O` [Compound 4b, 5-[(2,3,4,6-Tetra-O-acetyl-β-D-glucopyranosyl)disulfanyl]-2-amino-4-phenylthiazole], in data set [4], the EC50 at 24 h stood at 19 µM. Besides, the EC50 in data set [5] was more than 25 µM; in data set [6] it was 24.1 µM; in data set [7] it was more than 25 µM. In addition, the MIC50 was 20.5 ± 2.7 µM (≈ 11.7 µg/mL) in data set [1], 31.2 ± 2 µM (≈ 17.8 µg/mL) in data set [2] and 28.4 ± 3.1 µM (≈ 16.2 µg/mL) in data set [3].

In the case of `CC(=O)O[C@@H]1[C@@H](OC(C)=O)[C@H](SSc2sc(N)nc2-c2ccccc2)OC[C@H]1OC(C)=O` [Compound 4g, 5-[(2,3,4-Tri-O-acetyl-β-D-xylopyranosyl)disulfanyl]-2-amino-4-phenylthiazole], the concentration giving a half-maximal response (EC50) at 24 h in data set [4] is more than 25 µM. The EC50 in data set [5], in data set [6] and in data set [7] was more than 25 µM in each case. The MIC50 in data set [1] was found to be 35.7 ± 3 µM (≈ 17.8 µg/mL); in data set [2] it was 42.1 ± 4.1 µM (≈ 21 µg/mL); in data set [3] it was 34 ± 1.6 µM (≈ 17 µg/mL).

`CC(=O)O[C@@H]1[C@@H](OC(C)=O)[C@H](SSc2sc(N)nc2-c2ccc(C)cc2)OC[C@H]1OC(C)=O` [Compound 4j, 5-[(2,3,4-Tri-O-acetyl-β-D-xylopyranosyl)disulfanyl]-2-amino-4-(p-tolyl)thiazole]: in data set [4], the EC50 at 24 h was more than 25 µM. For the same molecule, the EC50 was more than 25 µM in data set [5], 23.7 µM in data set [6] and more than 25 µM in data set [7]. The MIC50 in data set [1] was determined as 18.1 ± 1 µM (≈ 9.28 µg/mL); in data set [2], 25.5 ± 2 µM (≈ 13.1 µg/mL); in data set [3] it was 25 ± 1.4 µM (≈ 12.8 µg/mL).

With `COc1ccc(-c2nc(N)sc2SS[C@@H]2O[C@H](CO)[C@@H](O)[C@H](O)[C@H]2O)cc1` [Compound 5a, 5-[(β-D-glucopyranosyl)disulfanyl]-2-amino-4-(4-methoxyphenyl)thiazole hydrochloride], the 50% effective concentration (EC50) at 24 h in data set [4] was more than 25 µM. The EC50 was more than 25 µM in data set [5], 24.9 µM in data set [6] and more than 25 µM in data set [7]. Besides, the MIC50 in data set [1], in data set [2] and in data set [3] was more than 50 µM in each case.

`Nc1nc(-c2ccccc2)c(SS[C@@H]2O[C@H](CO)[C@@H](O)[C@H](O)[C@H]2O)s1` [Compound 5b, 5-[(β-D-glucopyranosyl)disulfanyl]-2-amino-4-phenylthiazole hydrochloride]: the EC50 at 24 h in data set [4] was 20.8 µM. For the same molecule, the EC50 in data set [5], in data set [6] and in data set [7] was more than 25 µM throughout. Also, the MIC50 in data set [1], in data set [2] and in data set [3] was more than 50 µM in each case.

On to `Cc1ccc(-c2nc(N)sc2SS[C@@H]2O[C@H](CO)[C@@H](O)[C@H](O)[C@H]2O)cc1` [Compound 5e, 5-[(β-D-glucopyranosyl)disulfanyl]-2-amino-4-(p-tolyl)thiazole hydrochloride], for which the EC50 at 24 h in data set [4] was found to be 22.6 µM. Further, the half-maximal effective concentration (EC50) was more than 25 µM in data set [5], 23.5 µM in data set [6] and more than 25 µM in data set [7]. Moreover, the MIC50 in data set [1] was 38.5 ± 3.4 µM; in data set [2], more than 50 µM; in data set [3], more than 50 µM.

In the case of `COc1ccc(-c2nc(N)sc2SS[C@@H]2OC[C@@H](O)[C@H](O)[C@H]2O)cc1` [Compound 5f, 5-[(β-D-xylopyranosyl)disulfanyl]-2-amino-4-(4-methoxyphenyl)thiazole hydrochloride], the EC50 at 24 h in data set [4] is more than 25 µM. The EC50 in data set [5], in data set [6] and in data set [7] was more than 25 µM each time. The MIC50 was 36.2 ± 2.1 µM in data set [1], more than 50 µM in data set [2] and more than 50 µM in data set [3].

For `Nc1nc(-c2ccccc2)c(SS[C@@H]2OC[C@@H](O)[C@H](O)[C@H]2O)s1` [Compound 5g, 5-[(β-D-xylopyranosyl)disulfanyl]-2-amino-4-phenylthiazole hydrochloride], the EC50 at 24 h in data set [4] stood at 22 µM. The concentration giving a half-maximal response (EC50) in data set [5], in data set [6] and in data set [7] was more than 25 µM throughout. The MIC50 in data set [1] is 25.3 ± 1 µM; in data set [2], 24.9 ± 2.2 µM; in data set [3], more than 50 µM.

On to `Nc1nc(-c2ccc(Cl)cc2)c(SS[C@@H]2OC[C@@H](O)[C@H](O)[C@H]2O)s1` [Compound 5i, 5-[(β-D-xylopyranosyl)disulfanyl]-2-amino-4-(4-clorophenyl)thiazole hydrochloride], for which the EC50 at 24 h in data set [4] was more than 25 µM. The EC50 in data set [5], in data set [6] and in data set [7] was more than 25 µM in each case. In addition, the figures for the MIC50 in data set [1], in data set [2] and in data set [3] were 13.8 ± 1.2 µM, 21 ± 3 µM and 13.7 ± 1.1 µM, respectively.

`CNC(C)C1CCC(N)C(OC2C(N)CC(N)C(OC3OCC(C)(O)C(NC)C3O)C2O)O1` (stereo not drawn) [Gentamicin, reference compound]: the MIC50 in data set [2] came out at 5.1 ± 0.7 µM (≈ 2.44 µg/mL); in data set [3] it was 4.3 ± 0.8 µM (≈ 2.05 µg/mL).

The record behind these values is publication PMC11943723, “Synthesis and Biological Activity of Glycosyl Thiazolyl Disulfides Based on Thiacarpine, an Analogue of the Cytotoxic Alkaloid Polycarpine from the Ascidian Polycarpa aurata” (Marine Drugs, 2025).
